System: patients with unresectable HCC
Assay: Open-label phase 3 study, safety and side-effect profile (CTCAE v4.0)
Text: Randomization was stratified according to region (Asia-Pacific or Western regions), macroscopic portal vein invasion and/or extrahepatic spread (yes or no), Eastern Cooperative Oncology Group performance status (0 or 1), and body weight (<60 kg or ≥60 kg).
Safety assessments included recording of vital signs, hematologic and biochemical laboratory testing, urinalysis, and electrocardiography.

## COc1cc2nccc(Oc3ccc(NC(=O)NC4CC4)c(Cl)c3)c2cc1C(N)=O [Lenvatinib, 4-(3-chloro-4(cyclopropylaminocarbonyl)aminophenoxy)-7-methoxy-6-quinolinecarboxamide]
8 mg per day
  TEAE: Decreased appetite: 33.1%
  TEAE: Diarrhea: 35.1%
  TEAE: Hypertension: 43.0%
  TEAE: decreased weight: 28.5%
8 mg starting dose
  Dose reduction/interruption: Abdominal pain: 2 (1.3) n (%)
  Dose reduction/interruption: Abdominal pain upper: 2 (1.3) n (%)
  Dose reduction/interruption: Alanine aminotransferase increased: 2 (1.3) n (%)
  Dose reduction/interruption: Anemia: 2 (1.3) n (%)
  Dose reduction/interruption: Ascites: 3 (2.0) n (%)
  Dose reduction/interruption: Aspartate aminotransferase increased: 4 (2.6) n (%)
  Dose reduction/interruption: Asthenia: 3 (2.0) n (%)
  Dose reduction/interruption: Blood and lymphatic system disorders: 5 (3.3) n (%)
  Dose reduction/interruption: Blood bilirubin increased: 8 (5.3) n (%)
  Dose reduction/interruption: Decreased appetite: 15 (9.9) n (%)
  Dose reduction/interruption: Dehydration: 3 (2.0) n (%)
  Dose reduction/interruption: Diarrhea: 8 (5.3) n (%)
  Dose reduction/interruption: Dyspnea: 2 (1.3) n (%)
  Dose reduction/interruption: Edema peripheral: 2 (1.3) n (%)
  Dose reduction/interruption: Esophageal varices hemorrhage: 0 (0.0) n (%)
  Dose reduction/interruption: Fatigue: 5 (3.3) n (%)
  Dose reduction/interruption: Gamma-glutamyltransferase increased: 1 (0.7) n (%)
  Dose reduction/interruption: Gastrointestinal disorders: 22 (14.6) n (%)
  Dose reduction/interruption: General disorders and administration site conditions: 17 (11.3) n (%)
  Dose reduction/interruption: Hepatic encephalopathy: 4 (2.6) n (%)
  Dose reduction/interruption: Hepatic function abnormal: 0 (0.0) n (%)
  Dose reduction/interruption: Hepatobiliary disorders: 2 (1.3) n (%)
  Dose reduction/interruption: Hypertension: 3 (2.0) n (%)
  Dose reduction/interruption: Hyponatremia: 2 (1.3) n (%)
  Dose reduction/interruption: Investigations: 24 (15.9) n (%)
  Dose reduction/interruption: Malaise: 2 (1.3) n (%)
  Dose reduction/interruption: Metabolism and nutrition disorders: 21 (13.9) n (%)
  Dose reduction/interruption: Musculoskeletal and connective tissue disorders: 4 (2.6) n (%)
  Dose reduction/interruption: Myalgia: 1 (0.7) n (%)
  Dose reduction/interruption: Nausea: 2 (1.3) n (%)
  Dose reduction/interruption: Nervous system disorders: 7 (4.6) n (%)
  Dose reduction/interruption: Neutropenia: 0 (0.0) n (%)
  Dose reduction/interruption: Neutrophil count decreased: 4 (2.6) n (%)
  Dose reduction/interruption: Palmar-plantar erythrodysesthesia syndrome: 4 (2.6) n (%)
  Dose reduction/interruption: Platelet count decreased: 9 (6.0) n (%)
  Dose reduction/interruption: Proteinuria: 4 (2.6) n (%)
  Dose reduction/interruption: Pyrexia: 4 (2.6) n (%)
  Dose reduction/interruption: Rash: 0 (0.0) n (%)
  Dose reduction/interruption: Rash maculo-papular: 0 (0.0) n (%)
  Dose reduction/interruption: Renal and urinary disorders: 5 (3.3) n (%)
  Dose reduction/interruption: Respiratory, thoracic and mediastinal disorders: 4 (2.6) n (%)
  Dose reduction/interruption: Skin and subcutaneous tissue disorders: 5 (3.3) n (%)
  Dose reduction/interruption: Stomatitis: 2 (1.3) n (%)
  Dose reduction/interruption: Thrombocytopenia: 2 (1.3) n (%)
  Dose reduction/interruption: Vascular disorders: 3 (2.0) n (%)
  Dose reduction/interruption: Vomiting: 1 (0.7) n (%)
  Dose reduction/interruption: Weight decreased: 3 (2.0) n (%)
  Dose reduction/interruption: White blood cell count decreased: 3 (2.0) n (%)
  Subjects with Any TEAEs: 151 (100.0) n (%)
  Subjects with any TEAEs leading to Dose Reduction or Interruption: 81 (53.6) n (%)
  TEAE: Abdominal pain: 19 (12.6) n (%)
  TEAE: Abdominal pain upper: 21 (13.9) n (%)
  TEAE: Alanine aminotransferase increased: 17 (11.3) n (%)
  TEAE: Alopecia: 5 (3.3) n (%)
  TEAE: Ascites: 21 (13.9) n (%)
  TEAE: Aspartate aminotransferase increased: 21 (13.9) n (%)
  TEAE: Asthenia: 14 (9.3) n (%)
  TEAE: Back pain: 11 (7.3) n (%)
  TEAE: Blood bilirubin increased: 23 (15.2) n (%)
  TEAE: Constipation: 19 (12.6) n (%)
  TEAE: Decreased appetite: 50 (33.1) n (%)
  TEAE: Diarrhea: 53 (35.1) n (%)
  TEAE: Dysphonia: 28 (18.5) n (%)
  TEAE: Edema peripheral: 23 (15.2) n (%)
  TEAE: Fatigue: 42 (27.8) n (%)
  TEAE: Hypertension: 65 (43.0) n (%)
  TEAE: Hypothyroidism: 25 (16.6) n (%)
  TEAE: Nausea: 24 (15.9) n (%)
  TEAE: Palmar-plantar erythrodysesthesia syndrome: 35 (23.2) n (%)
  TEAE: Platelet count decreased: 26 (17.2) n (%)
  TEAE: Proteinuria: 37 (24.5) n (%)
  TEAE: Pyrexia: 24 (15.9) n (%)
  TEAE: Rash: 18 (11.9) n (%)
  TEAE: Stomatitis: 11 (7.3) n (%)
  TEAE: Vomiting: 22 (14.6) n (%)
  TEAE: Weight decreased: 43 (28.5) n (%)
12 mg per day
  TEAE: Decreased appetite: 34.5%
  TEAE: Diarrhea: 40.3%
  TEAE: Hypertension: 41.8%
  TEAE: decreased weight: 32.0%
12 mg starting dose
  Dose reduction/interruption: Abdominal pain: 4 (1.2) n (%)
  Dose reduction/interruption: Abdominal pain upper: 3 (0.9) n (%)
  Dose reduction/interruption: Alanine aminotransferase increased: 4 (1.2) n (%)
  Dose reduction/interruption: Anemia: 1 (0.3) n (%)
  Dose reduction/interruption: Ascites: 7 (2.2) n (%)
  Dose reduction/interruption: Aspartate aminotransferase increased: 5 (1.5) n (%)
  Dose reduction/interruption: Asthenia: 13 (4.0) n (%)
  Dose reduction/interruption: Blood and lymphatic system disorders: 11 (3.4) n (%)
  Dose reduction/interruption: Blood bilirubin increased: 12 (3.7) n (%)
  Dose reduction/interruption: Decreased appetite: 21 (6.5) n (%)
  Dose reduction/interruption: Dehydration: 3 (0.9) n (%)
  Dose reduction/interruption: Diarrhea: 28 (8.6) n (%)
  Dose reduction/interruption: Dyspnea: 6 (1.8) n (%)
  Dose reduction/interruption: Edema peripheral: 4 (1.2) n (%)
  Dose reduction/interruption: Esophageal varices hemorrhage: 5 (1.5) n (%)
  Dose reduction/interruption: Fatigue: 22 (6.8) n (%)
  Dose reduction/interruption: Gamma-glutamyltransferase increased: 6 (1.8) n (%)
  Dose reduction/interruption: Gastrointestinal disorders: 65 (20.0) n (%)
  Dose reduction/interruption: General disorders and administration site conditions: 50 (15.4) n (%)
  Dose reduction/interruption: Hepatic encephalopathy: 16 (4.9) n (%)
  Dose reduction/interruption: Hepatic function abnormal: 2 (0.6) n (%)
  Dose reduction/interruption: Hepatobiliary disorders: 25 (7.7) n (%)
  Dose reduction/interruption: Hypertension: 26 (8.0) n (%)
  Dose reduction/interruption: Hyponatremia: 3 (0.9) n (%)
  Dose reduction/interruption: Investigations: 57 (17.5) n (%)
  Dose reduction/interruption: Malaise: 3 (0.9) n (%)
  Dose reduction/interruption: Metabolism and nutrition disorders: 31 (9.5) n (%)
  Dose reduction/interruption: Musculoskeletal and connective tissue disorders: 14 (4.3) n (%)
  Dose reduction/interruption: Myalgia: 4 (1.2) n (%)
  Dose reduction/interruption: Nausea: 14 (4.3) n (%)
  Dose reduction/interruption: Nervous system disorders: 28 (8.6) n (%)
  Dose reduction/interruption: Neutropenia: 6 (1.8) n (%)
  Dose reduction/interruption: Neutrophil count decreased: 7 (2.2) n (%)
  Dose reduction/interruption: Palmar-plantar erythrodysesthesia syndrome: 21 (6.5) n (%)
  Dose reduction/interruption: Platelet count decreased: 13 (4.0) n (%)
  Dose reduction/interruption: Proteinuria: 29 (8.9) n (%)
  Dose reduction/interruption: Pyrexia: 8 (2.5) n (%)
  Dose reduction/interruption: Rash: 2 (0.6) n (%)
  Dose reduction/interruption: Rash maculo-papular: 0 (0.0) n (%)
  Dose reduction/interruption: Renal and urinary disorders: 35 (10.8) n (%)
  Dose reduction/interruption: Respiratory, thoracic and mediastinal disorders: 12 (3.7) n (%)
  Dose reduction/interruption: Skin and subcutaneous tissue disorders: 23 (7.1) n (%)
  Dose reduction/interruption: Stomatitis: 4 (1.2) n (%)
  Dose reduction/interruption: Thrombocytopenia: 4 (1.2) n (%)
  Dose reduction/interruption: Vascular disorders: 30 (9.2) n (%)
  Dose reduction/interruption: Vomiting: 11 (3.4) n (%)
  Dose reduction/interruption: Weight decreased: 17 (5.2) n (%)
  Dose reduction/interruption: White blood cell count decreased: 3 (0.9) n (%)
  Subjects with Any TEAEs: 319 (98.2) n (%)
  Subjects with any TEAEs leading to Dose Reduction or Interruption: 213 (65.5) n (%)
  TEAE: Abdominal pain: 62 (19.1) n (%)
  TEAE: Abdominal pain upper: 37 (11.4) n (%)
  TEAE: Alanine aminotransferase increased: 36 (11.1) n (%)

— patent publication US12226409B2, “Treatment of hepatocellular carcinoma” (Eisai R&D Management Co., Ltd., priority 2017, dated 2025)
